Active and inactive are the calls of the source. How the calls were made is not given here.
System: GENE-TOX genotoxicity assays, various organisms and cells
Assay: GENE-TOX mutagenicity studies
Settings: for call: Assay Type: In vivo carcinogenicity studies, Assay Code: CCG+
[1] = Species/Cell Type: Nonhuman, Evaluation Type: Evaluation A (Pre-1980)

In the case of CN(N=O)C(=O)Oc1cccc2c1OC(C)(C)C2, the mutagenic call (Species/Cell Type: Nonhuman, Assay Type: Sister-chromatid exchange (SCE) in vitro, Assay Code: SC2+D, Dose Response: With dose response, Evaluation Type: Evaluation B (Post-1980)) is reported as “active; positive”.
NNC(=O)COc1ccc(Br)cc1CN1CCCCC1 was tested, and the mutagenic call (Species/Cell Type: Saccharomyces cerevisiae, Assay Type: Reverse gene mutation, Assay Code: YERT, Evaluation Type: Evaluation A (Pre-1980)) was “no conclusion”.
O=S(=O)(O)c1ccc2c(N=Nc3ccc(S(=O)(=O)O)c4ccccc34)c(O)ccc2c1 was tested, and the mutagenic call (Species/Cell Type: Saccharomyces cerevisiae, Assay Type: Mitotic recombination or gene conversion, Assay Code: YEC-, Evaluation Type: Evaluation A (Pre-1980)) was “inactive; negative”.
For C[C@]12CC[C@@H]3c4ccc(O)cc4CC[C@H]3[C@@H]1CC[C@@H]2O, the mutagenic call (Species/Cell Type: Human lymphocytes, Assay Type: Sister-chromatid exchange (SCE) in vitro, Assay Code: SCL-*, Activation: With metabolic activation, Evaluation Type: Evaluation B (Post-1980)) was “inactive; negative”, the mutagenic call (Species/Cell Type: Human lymphocytes, Assay Type: Sister-chromatid exchange (SCE) in vitro, Assay Code: SCL-, Evaluation Type: Evaluation B (Post-1980)) was “inactive; negative” and the mutagenic call (Species/Cell Type: Human, Assay Type: Sister-chromatid exchange (SCE) in vitro, Assay Code: SC1-, Evaluation Type: Evaluation B (Post-1980)) was “inactive; negative”. For the same compound, the mutagenic call (Species/Cell Type: Mouse, Sex: Male, Assay Type: Sperm morphology, Assay Code: SPI+, Evaluation Type: Evaluation A (Pre-1980)) was “active; positive”, the call [1] was “active; positive” and the mutagenic call (Species/Cell Type: Nonhuman, Assay Type: Sister-chromatid exchange (SCE) in vitro, Assay Code: SC2T, Evaluation Type: Evaluation B (Post-1980)) was “no conclusion”. The mutagenic call (Species/Cell Type: Rat, Sex: Male, Assay Type: Sperm morphology, Assay Code: SPA+, Evaluation Type: Evaluation A (Pre-1980)) was “active; positive”.
COC(=O)[C@H](N)Cc1cnc[nH]1 was tested, and the mutagenic call (Species/Cell Type: Drosophila melanogaster, Assay Type: Sex-linked recessive lethal gene mutation, Assay Code: SRL-, Evaluation Type: Evaluation A (Pre-1980)) was “inactive; negative”.
For NC(=S)c1ccccc1, the mutagenic call (Species/Cell Type: Mammalian polychromatic erythrocytes, Assay Type: Micronucleus test, chromosome aberrations, Assay Code: MNT+, Evaluation Type: Evaluation B (Post-1980)) was “active; positive”.
CN(N=O)C(=O)N[C@@H]1O[C@H](CO)[C@H](O)[C@H](O)[C@H]1O was tested, and the mutagenic call (Species/Cell Type: Chinese hamster lung (V79) cells, Assay Type: Forward gene mutation at the HPRT or ouabain locus, Assay Code: V79+, Evaluation Type: Evaluation A (Pre-1980)) was “active; positive”.
For CCCOS(C)(=O)=O, the mutagenic call (Species/Cell Type: Hordeum vulgare (barley), Assay Type: Chromosome aberrations, Assay Code: HOC+, Evaluation Type: Evaluation A (Pre-1980)) was “active; positive”, the mutagenic call (Species/Cell Type: Hordeum vulgare (barley), Assay Type: Gene mutation, Assay Code: HOM+D, Dose Response: With dose response, Evaluation Type: Evaluation A (Pre-1980)) was “active; positive” and the mutagenic call (Species/Cell Type: Mammalian germ cells, Sex: Male, Assay Type: Chromosome aberrations in vivo, Assay Code: CY9T, Evaluation Type: Evaluation A (Pre-1980)) was “no conclusion”. The mutagenic call (Species/Cell Type: Mouse germ cells, Sex: Male, Assay Type: Unscheduled DNA synthesis (UDS) in vivo, DNA effects, Assay Code: UDT+, Evaluation Type: Evaluation A (Pre-1980)) was “active; positive”, the mutagenic call (Species/Cell Type: Mouse, Sex: Male, Assay Type: Specific locus test, gene mutation, Assay Code: SLT+, Evaluation Type: Evaluation A (Pre-1980)) was “active; positive” and the mutagenic call (Species/Cell Type: Rodents, Sex: Male, Assay Type: Dominant lethal test, Assay Code: DLT+, Evaluation Type: Evaluation A (Pre-1980)) was “active; positive”.
For CCCCCN(CCCCO)N=O, the mutagenic call (Species/Cell Type: Salmonella typhimurium (one or more of the five standard strains: TA98, TA100, TA1535, TA1537, and TA1538), Assay Type: Histidine reverse gene mutation, Ames assay, Assay Code: SAL+*, Activation: With metabolic activation, Evaluation Type: Evaluation A (Pre-1980)) was “active; positive”.
CC(=O)OC(c1ccc2c(c1)OCO2)C1CO1 (centres undefined) was tested, and the mutagenic call (Species/Cell Type: Salmonella typhimurium (one or more of the five standard strains: TA98, TA100, TA1535, TA1537, and TA1538), Assay Type: Histidine reverse gene mutation, Ames assay, Assay Code: SAL+, Evaluation Type: Evaluation A (Pre-1980)) was “active; positive”.
CCN(CCCCO)N=O was tested, and the mutagenic call (Species/Cell Type: Salmonella typhimurium (one or more of the five standard strains: TA98, TA100, TA1535, TA1537, and TA1538), Assay Type: Histidine reverse gene mutation, Ames assay, Assay Code: SALT, Evaluation Type: Evaluation A (Pre-1980)) was “no conclusion”.
In the case of CCn1c2ccccc2c2cc(N)ccc21, the call [1] is reported as “active; positive”.
CC(=O)Nc1cc2c(cc1O)-c1ccccc1C2 was tested, and the mutagenic call (Species/Cell Type: Drosophila melanogaster, Assay Type: Sex-linked recessive lethal gene mutation, Assay Code: SRLT, Evaluation Type: Evaluation A (Pre-1980)) was “no conclusion”, the mutagenic call (Species/Cell Type: Escherichia coli polA (W3110 vs P3478), Assay Type: Rec-assay, DNA effects (bacterial DNA repair), Assay Code: RE2-, Evaluation Type: Evaluation A (Pre-1980)) was “inactive; negative” and the mutagenic call (Species/Cell Type: Escherichia coli polA (W3119 vs P3478), Assay Type: Rec-assay, DNA effects (bacterial DNA repair), Assay Code: RE1T, Evaluation Type: Evaluation A (Pre-1980)) was “no conclusion”. For the same compound, the mutagenic call (Species/Cell Type: Human diploid fibroblasts, Assay Type: Unscheduled DNA synthesis (UDS) in vitro, DNA effects, Assay Code: UDH-, Evaluation Type: Evaluation A (Pre-1980)) was “inactive; negative”, the mutagenic call (Species/Cell Type: Saccharomyces cerevisiae, Assay Type: Mitotic recombination or gene conversion, Assay Code: YEH-, Evaluation Type: Evaluation A (Pre-1980)) was “inactive; negative” and the mutagenic call (Species/Cell Type: Salmonella typhimurium (one or more of the five standard strains: TA98, TA100, TA1535, TA1537, and TA1538), Assay Type: Histidine reverse gene mutation, Ames assay, Assay Code: SAL-, Evaluation Type: Evaluation A (Pre-1980)) was “inactive; negative”.

Source: PubChem BioAssay AID1259408 (Genetic Toxicology Data Bank (GENE-TOX), 2018)
